Laboratory results published in ChEMBL document CHEMBL1148993, “UV-mediated genotoxicity of furanoquinoline and of certain tryptophan-derived alkaloids” (J Nat Prod, 1983).
Counter-ions that a name gives are not always drawn.

Experiments:
CHO [1] = assay: Genotoxicity in CHO cells assessed as chromosomal aberrations at 0.07 ppm after 60 mins in dark followed by 5 W/m'2 UV irradiation for 30 mins; type: toxicity, cell-based, Cricetulus griseus; settings: chinese hamster, 0.5 h
CHO [2] = assay: Genotoxicity in CHO cells assessed as mitotic inhibition at 0.31 ppm after 60 mins in dark followed by 5 W/m'2 UV irradiation for 30 mins; type: toxicity, cell-based, Cricetulus griseus; settings: chinese hamster, 0.5 h
CHO [3] = assay: (§1) Genotoxicity in CHO cells assessed as mitotic inhibition at 0.62 ppm after 60 mins in dark followed by 5 W/m'2 UV irradiation for 30 mins; type: toxicity, cell-based, Cricetulus griseus; settings: chinese hamster, cho, 0.5 h
Pseudomonas aeruginosa [4] = assay: Phototoxicity against Pseudomonas aeruginosa at 100 ug/disk after irradiation with W/m'2 UV light; type: functional; settings: light or radiation study, read-out: IZ
Staphylococcus aureus [5] = assay: Phototoxicity against Staphylococcus aureus at 100 ug/disk in dark; type: functional; settings: light or radiation study, read-out: IZ
Saccharomyces cerevisiae [6] = assay: Phototoxicity against Saccharomyces cerevisiae at 100 ug/disk in dark; type: functional; settings: light or radiation study, read-out: IZ
Pseudomonas aeruginosa [7] = assay: Phototoxicity against Pseudomonas aeruginosa at 100 ug/disk in dark; type: functional; settings: light or radiation study, read-out: IZ
Pseudomonas fluorescens [8] = assay: Phototoxicity against Pseudomonas fluorescens at 100 ug/disk in dark; type: functional; settings: light or radiation study, read-out: IZ
Staphylococcus aureus [9] = assay: Phototoxicity against Staphylococcus aureus at 100 ug/disk after irradiation with W/m'2 UV light; type: functional; settings: light or radiation study, read-out: IZ
Bacillus subtilis [10] = assay: Phototoxicity against Bacillus subtilis at 100 ug/disk after irradiation with W/m'2 UV light; type: functional; settings: light or radiation study, read-out: IZ
Enterococcus faecalis [11] = assay: Phototoxicity against Streptococcus faecalis at 100 ug/disk after irradiation with W/m'2 UV light; type: functional; settings: light or radiation study, read-out: IZ
Pseudomonas fluorescens [12] = assay: Phototoxicity against Pseudomonas fluorescens at 100 ug/disk after irradiation with W/m'2 UV light; type: functional; settings: light or radiation study, read-out: IZ
Saccharomyces cerevisiae [13] = assay: Phototoxicity against Saccharomyces cerevisiae at 100 ug/disk after irradiation with W/m'2 UV light; type: functional; settings: light or radiation study, read-out: IZ
Candida albicans [14] = assay: Phototoxicity against Candida albicans at 100 ug/disk after irradiation with W/m'2 UV light; type: functional; settings: light or radiation study, read-out: IZ
Candida albicans [15] = assay: Phototoxicity against Candida albicans at 100 ug/disk in dark; type: functional; settings: light or radiation study, read-out: IZ
Enterococcus faecalis [16] = assay: Phototoxicity against Streptococcus faecalis at 100 ug/disk in dark; type: functional; settings: light or radiation study, read-out: IZ
CHO [17] = assay: Genotoxicity against CHO cells; type: toxicity, cell-based, Cricetulus griseus; settings: chinese hamster
CHO [18] = assay: Genotoxicity against CHO cells after UV irradiation; type: toxicity, cell-based, Cricetulus griseus; settings: chinese hamster
CHO [19] = assay: Genotoxicity in CHO cells assessed as chromosomal aberrations at 62.5 ppm after 60 mins in dark followed by 5 W/m'2 UV irradiation for 30 mins; type: toxicity, cell-based, Cricetulus griseus; settings: chinese hamster, 0.5 h
CHO [20] = assay: Genotoxicity in CHO cells assessed as mitotic inhibition at 3.9 ppm after 60 mins in dark followed by 5 W/m'2 UV irradiation for 30 mins; type: toxicity, cell-based, Cricetulus griseus; settings: chinese hamster, 0.5 h
Pseudomonas aeruginosa [21] = assay: Phototoxicity against Pseudomonas aeruginosa at 10 ug/disk after irradiation with W/m'2 UV light; type: functional; settings: light or radiation study, read-out: IZ
Bacillus subtilis [22] = assay: Phototoxicity against Bacillus subtilis at 10 ug/disk in dark; type: functional; settings: light or radiation study, read-out: IZ
Enterococcus faecalis [23] = assay: Phototoxicity against Streptococcus faecalis at 10 ug/disk after irradiation with W/m'2 UV light; type: functional; settings: light or radiation study, read-out: IZ
CHO [24] = assay: Genotoxicity in CHO cells assessed as chromosomal aberrations at 31.2 ppm after 60 mins in dark followed by 5 W/m'2 UV irradiation for 30 mins; type: toxicity, cell-based, Cricetulus griseus; settings: chinese hamster, 0.5 h
Bacillus subtilis [25] = assay: Phototoxicity against Bacillus subtilis at 10 ug/disk after irradiation with W/m'2 UV light; type: functional; settings: light or radiation study, read-out: IZ
Saccharomyces cerevisiae [26] = assay: Phototoxicity against Saccharomyces cerevisiae at 10 ug/disk in dark; type: functional; settings: light or radiation study, read-out: IZ
Enterococcus faecalis [27] = assay: Phototoxicity against Streptococcus faecalis at 10 ug/disk in dark; type: functional; settings: light or radiation study, read-out: IZ
CHO [28] = assay: Genotoxicity in CHO cells assessed as chromosomal aberrations at 125 ppm after 90 mins in dark; type: toxicity, cell-based, Cricetulus griseus; settings: chinese hamster, 1.5 h
Pseudomonas fluorescens [29] = assay: Phototoxicity against Pseudomonas fluorescens at 10 ug/disk in dark; type: functional; settings: light or radiation study, read-out: IZ
Candida albicans [30] = assay: Phototoxicity against Candida albicans at 10 ug/disk after irradiation with W/m'2 UV light; type: functional; settings: light or radiation study, read-out: IZ
Staphylococcus aureus [31] = assay: Phototoxicity against Staphylococcus aureus at 10 ug/disk after irradiation with W/m'2 UV light; type: functional; settings: light or radiation study, read-out: IZ
Saccharomyces cerevisiae [32] = assay: Phototoxicity against Saccharomyces cerevisiae at 10 ug/disk after irradiation with W/m'2 UV light; type: functional; settings: light or radiation study, read-out: IZ
Staphylococcus aureus [33] = assay: Phototoxicity against Staphylococcus aureus at 10 ug/disk in dark; type: functional; settings: light or radiation study, read-out: IZ
CHO [34] = assay: Genotoxicity in CHO cells assessed as chromosomal aberrations at 7.8 ppm after 60 mins in dark followed by 5 W/m'2 UV irradiation for 30 mins; type: toxicity, cell-based, Cricetulus griseus; settings: chinese hamster, 0.5 h
Pseudomonas aeruginosa [35] = assay: Phototoxicity against Pseudomonas aeruginosa at 10 ug/disk in dark; type: functional; settings: light or radiation study, read-out: IZ
CHO [36] = assay: Genotoxicity in CHO cells assessed as chromosomal aberrations at 15.6 ppm after 60 mins in dark followed by 5 W/m'2 UV irradiation for 30 mins; type: toxicity, cell-based, Cricetulus griseus; settings: chinese hamster, 0.5 h
Pseudomonas fluorescens [37] = assay: Phototoxicity against Pseudomonas fluorescens at 10 ug/disk after irradiation with W/m'2 UV light; type: functional; settings: light or radiation study, read-out: IZ
CHO [38] = assay: Genotoxicity in CHO cells assessed as chromosomal aberrations at 1.9 ppm after 60 mins in dark followed by 5 W/m'2 UV irradiation for 30 mins; type: toxicity, cell-based, Cricetulus griseus; settings: chinese hamster, 0.5 h
CHO [39] = assay: Genotoxicity in CHO cells assessed as chromosomal aberrations at 125 ppm after 60 mins in dark followed by 5 W/m'2 UV irradiation for 30 mins; type: toxicity, cell-based, Cricetulus griseus; settings: chinese hamster, 0.5 h
Escherichia coli [40] = assay: Phototoxicity against Escherichia coli at 10 ug/disk after irradiation with W/m'2 UV light; type: functional; settings: light or radiation study, read-out: IZ
Candida albicans [41] = assay: Phototoxicity against Candida albicans at 10 ug/disk in dark; type: functional; settings: light or radiation study, read-out: IZ
Escherichia coli [42] = assay: Phototoxicity against Escherichia coli at 10 ug/disk in dark; type: functional; settings: light or radiation study, read-out: IZ
CHO [43] = assay: Genotoxicity in CHO cells assessed as mitotic inhibition at 1.25 ppm after 60 mins in dark followed by 5 W/m'2 UV irradiation for 30 mins; type: toxicity, cell-based, Cricetulus griseus; settings: chinese hamster, 0.5 h
[44] = as §1; type: toxicity, cell-based, Cricetulus griseus; settings: chinese hamster, CHO cells; read-out: Activity

In the case of COc1ccc2[nH]c3c(c2c1)CCN=C3C, the Activity (CHO [1]) is reported as 0%, the Activity (CHO [2]) is reported as “Active” and the Activity (CHO [3]) is reported as “Toxic”.

Molecule CN1[C@@H]2CC[C@H]1C[C@@H](OC(=O)C(CO)c1ccccc1)C2 (stereo not given in full) [ATROPINE SULFATE] has a zone of inhibition at 100 µg/disc (Pseudomonas aeruginosa [4]) of 0 mm, a zone of inhibition at 100 µg/disc (Staphylococcus aureus [5]) of 0 mm and a zone of inhibition at 100 µg/disc (Saccharomyces cerevisiae [6]) of 0 mm. For the same molecule, the zone of inhibition at 100 µg/disc (Pseudomonas aeruginosa [7]) was 0 mm, the zone of inhibition at 100 µg/disc (Pseudomonas fluorescens [8]) was 0 mm and the zone of inhibition at 100 µg/disc (Staphylococcus aureus [9]) was 0 mm. The zone of inhibition at 100 µg/disc (Bacillus subtilis [10]) was 0 mm, the zone of inhibition at 100 µg/disc (Enterococcus faecalis [11]) was 0 mm and the zone of inhibition at 100 µg/disc (Pseudomonas fluorescens [12]) was 0 mm. The zone of inhibition at 100 µg/disc (Saccharomyces cerevisiae [13]) was 0 mm, the zone of inhibition at 100 µg/disc (Candida albicans [14]) was 0 mm and the zone of inhibition at 100 µg/disc (Candida albicans [15]) was 0 mm. The zone of inhibition at 100 µg/disc (Enterococcus faecalis [16]) was 0 mm.

For CN1[C@@H]2CC[C@H]1C[C@@H](OC(=O)C(CO)c1ccccc1)C2 (stereo not given in full) [ATROPINE], the Activity (CHO [17]) was “Not Active” and the Activity (CHO [18]) was “Not Active”.

In the case of O=c1ccc2nccc3c4ccccc4n1c23 [CANTHIN-6-ONE], the Activity (CHO [19]) is reported as “Toxic”, the Activity (CHO [20]) is reported as “Active” and the zone of inhibition at 10 µg/disc (Pseudomonas aeruginosa [21]) is reported as 0 mm. The zone of inhibition at 10 µg/disc (Bacillus subtilis [22]) was 16 mm, the zone of inhibition at 10 µg/disc (Enterococcus faecalis [23]) was 0 mm and the Activity (CHO [24]) was “Toxic”. The zone of inhibition at 10 µg/disc (Bacillus subtilis [25]) was 8.6 mm, the zone of inhibition at 10 µg/disc (Saccharomyces cerevisiae [26]) was 9 mm and the zone of inhibition at 10 µg/disc (Enterococcus faecalis [27]) was 0 mm. The Activity (CHO [28]) was 0%, the zone of inhibition at 10 µg/disc (Pseudomonas fluorescens [29]) was 0 mm and the zone of inhibition at 10 µg/disc (Candida albicans [30]) was 13 mm. The zone of inhibition at 10 µg/disc (Staphylococcus aureus [31]) was 10 mm, the zone of inhibition at 10 µg/disc (Saccharomyces cerevisiae [32]) was 13 mm and the zone of inhibition at 10 µg/disc (Staphylococcus aureus [33]) was 0 mm. The Activity (CHO [34]) was “Toxic”, the zone of inhibition at 10 µg/disc (Pseudomonas aeruginosa [35]) was 0 mm and the Activity (CHO [36]) was “Toxic”. For the same molecule, the zone of inhibition at 10 µg/disc (Pseudomonas fluorescens [37]) was 0 mm, the Activity (CHO [38]) was 22.2% and the Activity (CHO [39]) was “Toxic”. It also gave a zone of inhibition at 10 µg/disc (Escherichia coli [40]) of 7 mm, a zone of inhibition at 10 µg/disc (Candida albicans [41]) of 9 mm and a zone of inhibition at 10 µg/disc (Escherichia coli [42]) of 0 mm.

With COc1ccc2c3c([nH]c2c1)C(C)=NCC3 [HARMALINE] the Activity (CHO [43]) was “Active” and the Activity (CHO [3]) was “Active”.

With Cc1nccc2c1[nH]c1ccccc12 [HARMANE HYDROCHLORIDE] the inhibition at 0.5 h, 0.62 ppm [44] was 0%.
